Experimental findings from ChEMBL document CHEMBL2073818, “St John's Wort induces intestinal P-glycoprotein/MDR1 and intestinal and hepatic CYP3A4” (Clin Pharmacol Ther, 2000) are described below.

This data set concerns the target ATP-dependent translocase ABCB1 (Homo sapiens, UniProt P08183). Kind of data set: TP_TRANSPORTER: Western in vivo human. Format: functional, organism-based.

Sequence of ATP-dependent translocase ABCB1 (P08183 whole entry): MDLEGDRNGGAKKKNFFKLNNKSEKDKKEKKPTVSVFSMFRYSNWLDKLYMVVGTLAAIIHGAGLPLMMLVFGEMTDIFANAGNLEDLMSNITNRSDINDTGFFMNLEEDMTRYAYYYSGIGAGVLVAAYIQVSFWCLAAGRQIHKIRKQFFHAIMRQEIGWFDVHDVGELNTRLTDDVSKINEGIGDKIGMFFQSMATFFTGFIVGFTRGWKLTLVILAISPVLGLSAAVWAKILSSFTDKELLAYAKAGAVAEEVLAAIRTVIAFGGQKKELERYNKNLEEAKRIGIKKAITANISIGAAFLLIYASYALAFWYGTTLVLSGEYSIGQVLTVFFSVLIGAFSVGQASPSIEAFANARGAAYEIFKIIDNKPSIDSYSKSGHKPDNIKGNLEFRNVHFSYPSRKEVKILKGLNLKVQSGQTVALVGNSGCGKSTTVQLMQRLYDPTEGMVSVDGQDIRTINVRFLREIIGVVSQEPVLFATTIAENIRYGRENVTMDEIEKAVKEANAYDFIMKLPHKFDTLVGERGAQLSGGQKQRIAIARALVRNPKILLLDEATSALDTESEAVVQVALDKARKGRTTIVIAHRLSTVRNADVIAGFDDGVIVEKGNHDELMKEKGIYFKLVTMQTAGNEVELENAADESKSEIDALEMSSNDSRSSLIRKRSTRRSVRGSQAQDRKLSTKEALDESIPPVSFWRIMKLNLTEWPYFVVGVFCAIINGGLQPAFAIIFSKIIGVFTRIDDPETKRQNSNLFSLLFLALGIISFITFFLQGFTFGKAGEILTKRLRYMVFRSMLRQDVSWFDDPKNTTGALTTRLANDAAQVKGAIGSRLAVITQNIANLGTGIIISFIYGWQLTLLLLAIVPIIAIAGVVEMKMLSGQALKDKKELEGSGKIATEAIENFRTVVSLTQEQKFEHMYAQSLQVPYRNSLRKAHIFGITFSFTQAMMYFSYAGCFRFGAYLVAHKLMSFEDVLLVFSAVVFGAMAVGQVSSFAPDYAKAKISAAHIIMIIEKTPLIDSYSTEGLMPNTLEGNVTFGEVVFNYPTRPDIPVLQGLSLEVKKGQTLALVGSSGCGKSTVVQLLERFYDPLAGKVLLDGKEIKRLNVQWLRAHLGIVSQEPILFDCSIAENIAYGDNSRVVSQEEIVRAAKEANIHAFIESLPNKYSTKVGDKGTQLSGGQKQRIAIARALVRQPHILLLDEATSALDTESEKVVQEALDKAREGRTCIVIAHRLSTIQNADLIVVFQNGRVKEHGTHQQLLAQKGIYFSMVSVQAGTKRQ

Take ST. JOHN'S WORT: the Activity result is “inducer [+]”.
